Data from patent US9409915B2, “Substituted aza-bicyclic imidazole derivatives useful as TRPM8 receptor modulators” (Janssen Pharmaceutica NV, priority 2010, dated 2016).
pIC50: −log10 of the molar value. Structures can show the parent of a compound that is named as a salt.

Biological target: canine TRPM8 (Canis lupus familiaris, UniProt Q1A7N1)
Assay: In vitro canine TRPM8 functional assay (Ca2+-sensitive fluorescent dye, icilin activation)
Type: cell-based
Conditions: HEK293 cells stably expressing canine TRPM8, icilin-induced Ca2+ response; for pIC50: eight-point concentration-response
Description: The functional activity of representative compounds of the formula (I) of the present invention was quantified by measuring changes in intracellular calcium concentration using a Ca^2+-sensitive fluorescent dye. The changes in fluorescent signal were monitored by a fluorescence plate reader, either a FLIPR™ (Molecular Devices) or FDSS (Hamamatsu).
HEK293 cells stably expressing canine TRPM8 were routinely grown as monolayers in Dulbecco's minimum essential medium supplemented with 10% FBS, 2 mM L-glutamine, 100 units/mL penicillin, 100 ug/mL streptomycin and 400 μg/mL G418. Cells were maintained in 5% CO2 at 37° C. At 24 hr prior to assay, cells were seeded in black wall, clear-base poly-D-lysine coated 384-well plates (BD Biosciences, NJ, USA) at a density of 5,000 cells per well in culture medium and grown overnight in 5% CO2 at 37° C. On assay day, growth media was removed, and cells were loaded with Calcium 3 Dye (Molecular Devices) for 35 min at 37° C., under 5% CO2 and then incubated for 25 min at room temperature and atmosphere. Subsequently, cells were tested for agonist-induced increases in intracellular Ca^2+ levels using FLIPR™ or FDSS. Cells were treated with compounds of the formula (I) at varying concentrations and intracellular Ca^2+ was measured for 5 min prior to the addition of icilin to each well to achieve a final concentration that produces an approximately 80% maximal response.
Maximal fluorescence intensity (FI) achieved upon addition of icilin was exported from the FLIPR™ or FDSS software and further analyzed using GraphPad Prism 3.02 (Graph Pad Software Inc., CA, U.S.A.). Basal FI was subtracted prior to normalizing data to percent of maximal response. Curves were generated using the average of quadruplicate wells for each data point using nonlinear regression of either sigmoidal dose response or sigmoidal dose response (variable slope). Finally, the EC50 and IC50 values were calculated with the best-fit curve determined by GraphPad Prism

Chain of canine TRPM8 (Q1A7N1 1-1104): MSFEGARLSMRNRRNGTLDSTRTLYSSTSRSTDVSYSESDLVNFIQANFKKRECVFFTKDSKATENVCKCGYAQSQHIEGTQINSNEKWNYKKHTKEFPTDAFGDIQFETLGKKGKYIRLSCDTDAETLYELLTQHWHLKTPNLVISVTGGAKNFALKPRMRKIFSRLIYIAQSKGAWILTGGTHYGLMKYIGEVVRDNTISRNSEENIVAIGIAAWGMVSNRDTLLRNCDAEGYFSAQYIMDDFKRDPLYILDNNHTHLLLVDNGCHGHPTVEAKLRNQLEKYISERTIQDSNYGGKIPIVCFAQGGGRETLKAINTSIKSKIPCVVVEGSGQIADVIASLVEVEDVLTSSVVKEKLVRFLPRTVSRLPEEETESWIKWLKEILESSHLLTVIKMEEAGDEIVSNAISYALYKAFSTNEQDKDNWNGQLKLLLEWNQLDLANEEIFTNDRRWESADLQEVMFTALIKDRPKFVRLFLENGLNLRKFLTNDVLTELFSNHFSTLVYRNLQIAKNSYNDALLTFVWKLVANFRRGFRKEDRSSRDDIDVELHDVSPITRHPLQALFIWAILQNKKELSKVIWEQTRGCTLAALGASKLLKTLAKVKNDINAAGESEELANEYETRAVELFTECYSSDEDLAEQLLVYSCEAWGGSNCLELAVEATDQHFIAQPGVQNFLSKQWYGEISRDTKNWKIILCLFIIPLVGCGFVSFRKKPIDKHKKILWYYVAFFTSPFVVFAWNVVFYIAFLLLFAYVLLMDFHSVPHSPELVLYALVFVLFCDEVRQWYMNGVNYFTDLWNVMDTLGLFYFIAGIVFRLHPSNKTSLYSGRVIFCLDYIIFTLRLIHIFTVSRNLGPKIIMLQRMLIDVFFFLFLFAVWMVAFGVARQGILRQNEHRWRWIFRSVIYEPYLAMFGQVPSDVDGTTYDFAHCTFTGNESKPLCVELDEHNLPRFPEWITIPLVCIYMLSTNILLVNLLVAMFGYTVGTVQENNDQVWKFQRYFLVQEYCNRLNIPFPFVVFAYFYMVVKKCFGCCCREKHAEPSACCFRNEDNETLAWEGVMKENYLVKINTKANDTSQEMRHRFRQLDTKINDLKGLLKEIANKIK

Row | Compound | inhibition at 0.2 µM (0.2 μM compound) [%] | pIC50 | inhibition at 0.2 µM (HEK293, 0.2 μM compound) [%]
1 | COc1cc(-c2ccccc2C(F)(F)F)nc2nc(-c3onc(C(C)(C)C)c3C#N)[nH]c12 [Compound 70, 3-tert-Butyl-5-[7-methoxy-5-(2-trifluoromethyl-phenyl)-1H-imidazo[4,5-b]pyridin-2-yl]-isoxazole-4-carbonitrile methanesulfonic acid salt] | 36 |  | 
2 | Cn1nc(C(C)(C)C)c(Cl)c1-c1nc2cc(-c3ccccc3C(F)(F)F)nc(Cl)c2[nH]1 [Compound 71, 2-(5-tert-Butyl-4-chloro-2-methyl-2H-pyrazol-3-yl)-4-chloro-6-(2-trifluoromethyl-phenyl)-3H-imidazo[4,5-c]pyridine Hydrochloride] | 100 | 8.06 | 
3 | Cn1nc2c(c1-c1nc3c(Cl)nc(-c4ccccc4C(F)(F)F)cc3[nH]1)CCC21CCCCC1 [Compound 72, 3′-{4-Chloro-6-[2-(trifluoromethyl)phenyl]-1H-imidazo[4,5-c]pyridin-2-yl}-2′-methyl-4′,5′-dihydro-2′H-spiro[cyclohexane-1,6′-cyclopenta[c]pyrazole] hydrochloride] | 95 | 7.20 | 
4 | CC(C)(C)c1cc(-c2nc3cc(-c4ccccc4C(F)(F)F)nc(Cl)c3[nH]2)on1 [Compound 73, 2-(3-tert-Butyl-isoxazol-5-yl)-4-chloro-6-(2-trifluoromethyl-phenyl)-3H-imidazo[4,5-c]pyridine hydrochloride] | 100 | 7.55 | 
5 | Cn1nc(C(C)(C)C)cc1-c1nc2cc(-c3ccccc3C(F)(F)F)nc(Cl)c2[nH]1 [Compound 74, 2-(5-tert-Butyl-2-methyl-2H-pyrazol-3-yl)-4-chloro-6-(2-trifluoromethyl-phenyl)-3H-imidazo[4,5-c]pyridine hydrochloride] | 93 | 7.02 | 
6 | Cn1nc(C(C)(C)C)c(C#N)c1-c1nc2cc(-c3ccccc3C(F)(F)F)nc(Cl)c2[nH]1 [Compound 75, 3-tert-Butyl-5-[4-chloro-6-(2-trifluoromethyl-phenyl)-3H-imidazo[4,5-c]pyridin-2-yl]-1-methyl-1H-pyrazole-4-carbonitrile Hydrochloride] | 100 | 7.62 | 
7 | COCCOc1cc(-c2ccccc2C(F)(F)F)nc2nc(-c3c(Cl)c(C(C)(C)C)nn3C)[nH]c12 [Compound 76, 2-(5-tert-Butyl-4-chloro-2-methyl-2H-pyrazol-3-yl)-7-(2-methoxy-ethoxy)-5-(2-trifluoromethyl-phenyl)-1H-imidazo[4,5-b]pyridine methanesulfonic acid salt] |  | 8.24 | 98
8 | COc1nc(-c2ccccc2C(F)(F)F)cc2nc(-c3c(F)c(C(C)(C)C)nn3C)[nH]c12 [Compound 78, 2-(5-tert-Butyl-4-fluoro-2-methyl-2H-pyrazol-3-yl)-4-methoxy-6-(2-trifluoromethyl-phenyl)-3H-imidazo[4,5-c]pyridine methanesulfonic acid salt] | 100 | 7.80 | 
9 | COc1c(C(C)(C)C)nn(C)c1-c1nc2cc(-c3ccccc3C(F)(F)F)nc(OC)c2[nH]1 [Compound 79, 2-(5-tert-Butyl-4-methoxy-2-methyl-2H-pyrazol-3-yl)-4-methoxy-6-(2-trifluoromethyl-phenyl)-3H-imidazo[4,5-c]pyridine methanesulfonic acid salt] | 101 | 7.70 | 
10 | COc1nc(-c2ccccc2C(F)(F)F)cc2nc(-c3cc(C(C)(C)C)nn3C)[nH]c12 [Compound 80, 2-(5-tert-Butyl-2-methyl-2H-pyrazol-3-yl)-4-methoxy-6-(2-trifluoromethyl-phenyl)-3H-imidazo[4,5-c]pyridine methanesulfonic acid salt] | 100 | 7.38 | 
11 | COc1cc(-c2ccccc2C(F)(F)F)nc2nc(-c3cc(C(C)(C)C)nn3C)[nH]c12 [Compound 81, 2-(5-tert-Butyl-2-methyl-2H-pyrazol-3-yl)-7-methoxy-5-(2-trifluoromethyl-phenyl)-1H-imidazo[4,5-b]pyridine hydrochloride] | 67 | 6.92 | 
12 | Cn1nc(C(C)(C)C)c(C#N)c1-c1nc2cc(-c3ccccc3Cl)nc(OCCO)c2[nH]1 [Compound 83, 3-tert-Butyl-5-[6-(2-chloro-phenyl)-4-(2-hydroxy-ethoxy)-3H-imidazo[4,5-c]pyridin-2-yl]-1-methyl-1H-pyrazole-4-carbonitrile] | 99 | 8.74 | 
13 | Cn1nc(C(C)(C)C)c(C#N)c1-c1nc2cc(-c3ccccc3C(F)(F)F)nc(OCCO)c2[nH]1 [Compound 84, 3-tert-Butyl-5-[4-(2-hydroxy-ethoxy)-6-(2-trifluoromethyl-phenyl)-3H-imidazo[4,5-c]pyridin-2-yl]-1-methyl-1H-pyrazole-4-carbonitrile] | 100 | 8.72 | 
14 | Cn1nc(C(C)(C)C)c(C#N)c1-c1nc2cc(-c3ccccc3Cl)nc(OCC(=O)O)c2[nH]1 [Compound 85, [2-(5-tert-Butyl-4-cyano-2-methyl-2H-pyrazol-3-yl)-6-(2-chloro-phenyl)-3H-imidazo[4,5-c]pyridin-4-yloxy]-acetic acid] | 32 |  | 
15 | Cn1nc(C(C)(C)C)c(C#N)c1-c1nc2cc(-c3ccccc3C(F)(F)F)nc(OCC(=O)O)c2[nH]1 [Compound 86, [2-(5-tert-Butyl-4-cyano-2-methyl-2H-pyrazol-3-yl)-6-(2-trifluoromethyl-phenyl)-3H-imidazo[4,5-c]pyridin-4-yloxy]-acetic acid] | 49 |  | 
16 | Cn1nc(C(C)(C)C)c(Cl)c1-c1nc2cc(-c3ccccc3Cl)nc(OCC(=O)O)c2[nH]1 [Compound 87, [2-(5-tert-Butyl-4-chloro-2-methyl-2H-pyrazol-3-yl)-6-(2-chloro-phenyl)-3H-imidazo[4,5-c]pyridin-4-yloxy]-acetic acid] |  | 6.88 | 72
17 | Cn1nc(C(C)(C)C)c(Cl)c1-c1nc2cc(-c3ccccc3C(F)(F)F)nc(OCC(=O)O)c2[nH]1 [Compound 88, [2-(5-tert-Butyl-4-chloro-2-methyl-2H-pyrazol-3-yl)-6-(2-trifluoromethyl-phenyl)-3H-imidazo[4,5-c]pyridin-4-yloxy]-acetic acid] | 36 |  | 
18 | Cn1nc(C(C)(C)C)c(Cl)c1-c1nc2cc(-c3ccccc3Cl)nc(OCC(F)(F)F)c2[nH]1 [Compound 89, 2-(5-tert-Butyl-4-chloro-2-methyl-2H-pyrazol-3-yl)-6-(2-chlorophenyl)-4-(2,2,2-trifluoro-ethoxy)-3H-imidazo[4,5-c]pyridine sodium salt] | 100 | 9.28 | 
19 | Cn1nc(C(C)(C)C)c(Cl)c1-c1nc2cc(-c3ccccc3OC(F)(F)F)nc(OCC(F)(F)F)c2[nH]1 [Compound 90, 2-(5-tert-Butyl-4-chloro-2-methyl-2H-pyrazol-3-yl)-4-(2,2,2-trifluoro-ethoxy)-6-(2-trifluoromethoxyphenyl)-3H-imidazo[4,5-c]pyridine sodium salt] | 99 | 9.14 | 
20 | Cn1nc(C(C)(C)C)c(Cl)c1-c1nc2cc(-c3ccccc3F)nc(OCC(F)(F)F)c2[nH]1 [Compound 91, 2-(5-tert-Butyl-4-chloro-2-methyl-2H-pyrazol-3-yl)-6-(2-fluorophenyl)-4-(2,2,2-trifluoroethoxy)-3H-imidazo[4,5-c]pyridine sodium salt] | 99 | 8.42 | 
